Assay results as given in ChEMBL document CHEMBL1157943, “Oblongifolins A-D, polyprenylated benzoylphloroglucinol derivatives from Garcinia oblongifolia” (J Nat Prod, 2006).
Calls of active or inactive are those of the source. No cut-off for these calls is given here.

Assays:
[1] = Inhibition of microtubule disassembly at 10 mg/ml
[2] = Inhibition of tubulin assembly
[3] = Inhibition of microtubule disassembly
[4] = Inhibition of tubulin assembly at 10 mg/ml

IC50 [2]	Activity [3]	Structure (SMILES)	further results
97 µM		C=C(C)[C@@H](CC=C(C)C)C[C@@]12C[C@@H](CC=C(C)C)C(C)(C)[C@@](CC=C(C)C)(C(=O)C(C(=O)c3ccc(O)c(O)c3)=C1O)C2=O [GARCINOL]	inhibition [1]: 46%
69 µM		CC(C)=CCC/C(C)=C/C[C@@H]1C[C@]2(CC=C(C)C)C(=O)[C@@](CC=C(C)C)(C(=O)C(C(=O)c3ccc(O)c(O)c3)=C2O)C1(C)C [OBLONGIFOLIN B]	inhibition [1]: 7%
53 µM	inactive	CC(C)=CCC/C(C)=C/C[C@@H]1C[C@@]2(C/C=C(\C)CCC=C(C)C)C(=O)[C@](CC=C(C)C)(C(=O)C(C(=O)c3ccc(O)c(O)c3)=C2O)C1(C)C [GUTTIFERONE B]	
		CC(=O)O[C@H]1C(=O)[C@@]2(C)[C@H]([C@H](OC(=O)c3ccccc3)[C@]3(O)C[C@H](OC(=O)[C@H](O)[C@@H](NC(=O)c4ccccc4)c4ccccc4)C(C)=C1C3(C)C)[C@]1(OC(C)=O)CO[C@@H]1C[C@@H]2O [PACLITAXEL]	IC50 [3]: 0.5 µM; Activity [2]: inactive
	inactive	CC(C)=CCC/C(C)=C/C[C@H]1C[C@]2(CC=C(C)C)C(=O)[C@@](CC=C(C)C)(C(=O)C(C(=O)c3ccc(O)c(O)c3)=C2O)C1(C)C	inhibition [4]: 41%
53 µM	inactive	CC(C)=CCC/C(C)=C/C[C@@H]1C[C@]2(CC=C(C)C)C(=O)[C@@](CC=C(C)C)(C(=O)C(C(=O)c3ccc(O)c(O)c3)=C2O)[C@@]1(C)CCC=C(C)C [OBLONGIFOLIN C]	
92 µM	inactive	CC(C)=CCC/C(C)=C/C[C@H]1C[C@]2(C/C=C(\C)CCC=C(C)C)C(=O)[C@@](CC=C(C)C)(C(=O)C(C(=O)c3ccc(O)c(O)c3)=C2O)C1(C)C [OBLONGIFOLIN D]	
